Laboratory results reported in publication PMC10064330, “Reversible Dual-Covalent Molecular Locking of the 14-3-3/ERRγ Protein–Protein Interaction as a Molecular Glue Drug Discovery Approach” (Journal of the American Chemical Society, 2023).

Molecular target: T1, 14-3-3γ/ERRγ complex (Homo sapiens, UniProt P61981+P62508)
T1 construct: made in house; host or cells: E. coli NiCo21 (DE3)
Assay: Fluorescence anisotropy (FA): 14-3-3γ titration to fluorescein-ERRγ phosphopeptide with 100 μM compound
Assay type: binding
Settings: for stabilization (SF100) at high TCEP / stabilization of 14-3-3γ/ERRγ complex (SF100, fold) / SF100: 100 μM compound; for stabilization (SF100) at high TCEP: 1 mM TCEP; for stabilization factor SF100, Replicate 1 (Table S2) / stabilization factor SF100, Replicate 2 (Table S2) / stabilization factor SF100, Replicate 3 (Table S2) / stabilization factor SF100, Average (Table S2): KD DMSO control / apparent KD with 100 μM compound, 24 h; for stabilization factor SF100, Average (Table S2): average of three experiments; for stabilization of 14-3-3γ/ERRγ complex (SF100, fold): 24 h incubation; for SF100: 50 μM TCEP
Procedure: The stabilization of the ERRγ/14-3-3γ complex by the molecular locks was assessed using a fluorescence anisotropy (FA) assay where 14-3-3γ was titrated into a fluorescently labeled ERRγ phosphopeptide in the absence or presence of a 100 μM molecular lock (Figure 2a,b); this compound concentration was selected based on a FA compound titration assay (Figure S1).
Experimental Section Biophysical Assays
14-3-3γ protein expression (FA, TSA, MS assays)
A pPROEX HTb expression vector encoding the human 14-3-3 protein gamma (14-3-3γ) with a N-terminal his6-tag was transformed by heat shock into NiCo21 (DE3) competent cells. Single colonies were cultured in 50 mL LB medium (100 µg/mL ampicillin). After overnight incubation at 37 °C, cultures were transferred to 2 L TB media (100 µg/mL ampicillin, 1 mM MgCl2) and incubated at 37 °C until an OD600 nm of 0.8 -1.2 was reached. Protein expression was then induced with 0.4 mM isopropyl-β-d-thiogalactoside (IPTG), and cultures were incubated overnight at 18 °C. Cells were harvested by centrifugation (8600 rpm, 20 minu tes, 4 °C) and resuspended in lysis buffer (50 mM Hepes, pH 8.0, 300 mM NaCl, 12.5 mM imidazole, 5 mM MgCl2, 2 mM βME) containing cOmplete™ EDTA-free Protease Inhibitor Cocktail tablets (1 tablet/100 ml lysate) and benzonase ( 5 µl/100 ml). After lysis using a C3 Emulsiflex-C3 homogenizer (Avestin), the cell lysate was cleared by centrifugation (20000 rpm, 30 minutes, 4 °C) and purified using Ni2+-affinity chromatography (Ni -NTA superflow cartridges, Qiagen). Typically two 5 mL columns (flow 5 mL/min) were use d for a 2 L culture in which the lysate was loaded on the column , washed with 10 CV wash buffer (50 mM Hepes, pH 8.0, 300 mM NaCl, 25 mM imidazole, 2 mM βME), and eluted in several fractions (2-4 CV) of elution buffer (50 mM Hepes, pH 8.0, 300 mM NaCl, 250 mM imidazole, 2 mM βME). Fractions containing the 14 -3-3 protein were combined and dialyzed into 25 mM HEPES pH 8.0, 100 mM NaCl, 10 mM MgCl2, 500 µM TCEP. Finally, the protein was concentrated to ∼60 mg/mL, analyzed Q-Tof LC/MS, and aliquots were flash-frozen for storage at −80 °C.
14-3-3σΔc C38N protein expression (Crystallography)
A pPROEX HTb expression vector encoding the human 14-3-3 protein sigma truncated after T231 (14-3-3σΔc), mutated C38N, and containing a N-terminal his6-tag was transformed by heat shock into NiCo21 (DE3) competent cells. Single colonies were cultured in 50 mL LB medium (100 µg/mL ampicillin). After overnight incubation at 37 °C, cultures were transferred to 2 L TB media (100 µg/mL ampicillin, 1 mM MgCl2) and incubated at 37 °C until an OD600 nm of 0.8-1.2 was reached. Protein expression was then induced with 0.4 mM isopropyl-β-d-thiogalactoside (IPTG), and cultures were incubated overnight at 18 °C. Cells were harvested by centrifugation (8600 rpm, 20 minutes, 4 °C) and resuspended in lysis buffer (50 mM Hepes, pH 8.0, 300 mM NaCl, 12.5 mM imidazole, 5 mM MgCl2, 2 mM βME) containing cOmplete™ EDTA-free Protease Inhibitor Cocktail tablets (1 tablet/ 100 ml lysate) and benzonase (5 µl/ 100 ml). After lysis using a C3 Emulsiflex-C3 homogenizer (Avestin), […]
chromatography (Ni-NTA superflow cartridges, Qiagen). Typically two 5 mL columns were used for a 2 L culture in which the lysate was loaded on the column , washed with 10 CV wash buffer (50 mM Hepes, pH 8.0, 300 mM NaCl, 25 mM imidazole, 2 mM βME), and eluted with several fractions (2 -4 CV) of elution buffer (50 mM Hepes, pH 8.0, 300 mM NaCl, 250 mM imidazole, 2 mM βME). Fractions containing the 14-3-3 protein were combined and dialyzed into 25 mM HEPES pH 8.0, 200 mM NaCl, 10 mM MgCl 2, 2 mM βME. In addition, 1 mg TEV was added for each 100 mg purified protein to remove the purification tag. The cleaved sample was then again loaded on a 10 mL Ni-NTA column to separate the cleaved product from the expression tag and residual uncleaved protein. The flowthrough was loaded on a Superdex 75 pg 16/60 size exc lusion column (GE Life Sciences) using […]

T1 sequence (P61981 whole entry, other chains not shown): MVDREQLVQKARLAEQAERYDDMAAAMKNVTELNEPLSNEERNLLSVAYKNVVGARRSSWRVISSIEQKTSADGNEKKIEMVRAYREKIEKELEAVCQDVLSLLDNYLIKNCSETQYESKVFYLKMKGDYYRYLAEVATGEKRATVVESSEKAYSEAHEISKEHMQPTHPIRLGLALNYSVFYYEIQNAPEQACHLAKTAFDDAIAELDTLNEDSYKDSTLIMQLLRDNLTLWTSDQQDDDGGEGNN

Compound | stabilization (SF100) at high TCEP | stabilization factor SF100, Replicate 1 (Table S2) | stabilization factor SF100, Replicate 2 (Table S2) | stabilization factor SF100, Replicate 3 (Table S2) | stabilization factor SF100, Average (Table S2) | stabilization of 14-3-3γ/ERRγ complex (SF100, fold) | SF100
CN(C)CCSSCCN(C)C(=O)c1ccc(C=O)c(F)c1 [compound 5] | completely abolished | 27.0 | 17.8 | 16.5 | 20.4 | – | –
CN(C)CCNC(=O)c1ccc(C=O)c(F)c1 [compound 3] | – | 1.0 | 1.0 | 0.9 | 1.0 | 1 | –
CN(C)CCSSCCN(C)C(=O)c1cccc(F)c1 [compound 1, reference compound] | completely abolished | 5.3 | 3.7 | 4.6 | 4.6 | five-fold | 5
CN(C)CCSSCCN(C)C(=O)c1cc(Br)cc(C=O)c1 [compound 10] | completely abolished | 37.6 | 34.1 | 38.8 | 36.9 | – | 37
